Measured values as given in US9453837B2, “Grafted dinuclear metal complexes, and use thereof as cellular microparticle sensors” (CENTRE NATIONAL DE LA RECHERCHE SCIENTIFIQUE (CNRS), priority 2011, dated 2016).

Test system: microparticles derived from the activation of the cell culture of HMEC1 human microvascular endothelial cells by TNF-α
Test: Colorimetric assay of cellular microparticles by immobilisation of the complex on a microtiter plate (sensitivity study)
Type: binding
Conditions: complex immobilised on polyglutaraldehyde-activated PVC plate; anti-CD105 antibody, peroxidase secondary antibody, ABTS; FIG. 1
Experimental: a) Reagents: • Glutaraldehyde 25% • Ethanolamine 16.5 M • Bicarbonate buffer (Na Bic), at pH 9.5, 1 M, to be made only by titration of a solution of NaH2CO3 (pH 8.3) with a solution of Na2CO3 at pH 11, 6. • HEPES buffer, 10 mM pH 7.4; 0.15 M NaCl • (hBPMP/Zinc)-C6H2, 150 μM
b) Protocols: • Polymerisation of glutaraldehyde: • 50 ml of a solution of 2.5% glutaraldehyde is prepared in 0.1 M Na Bic, then the mixture is placed in a sealed vial at 37° C. for 2 hours. • Adsorption of polyglutaraldehyde on the surface of polyvinyl chloride: • A microtiter plate with 96 wells is used. • 100 μL of 2.5% glutaraldehyde is deposited in each well and left for 2 hours at 22° C. The polyglutaraldehyde is removed and the surface is rinsed 3 times with water. • Immobilisation of the complex [(Zn2)(BPMP-C6H2)(μ-OH)].(ClO4)2 • The complex in 0.1 M HEPES, pH 8.2 is immobilised on the surface of the polyvinyl chloride plate for 24 hours at +22° C.: • The free aldehyde groups are saturated with 0.3 M ethanolamine by incubating the surface with this solution for 2 hours at 22° C., then the ethanolamine is eliminated by washing with water and then washing 3 times in 10 mM HEPES at pH 7.4, 0.15 M NaCl. […]
The reading is performed by means of a spectrophotometer. […]

Substance: [μ-[6-amino-N-(3,5-bis((bis(2-pyridylmethyl)amino)methyl)-4-hydroxybenzyl)hexanamide]]-μ-hydroxo, dizinc, diperchlorate [Example 4]
- signal (initial velocity Vi of peroxidase substrate degradation) based on the quantity of microparticles: specific dose-response
